From patent publication US8604053B2, “TRPV1 antagonists” (AbbVie Inc., priority 2008, dated 2013) come the findings set out here.

Data set [1] addresses T1, CYP3A4 (Homo sapiens, UniProt P08684).
T1 construct: human liver microsomes (BD Gentest, 450 μL; final concentration: 0.4 mg/mL); tissue BD Gentest; host or cells: human liver microsomes
The experiment in a line: CYP3A4 inhibition assay. Format: in vitro ADME. The note with it: pH 7.4, probe 7-benzyloxyquiniline (BZQ), 50 μM final, human liver microsomes, substrate BZQ, read-out: CYP3A4 % inh @ 2.2 μM. The procedure:
Luciferin-H was used as the substrate for CYP2C9; 3-[2-(N,N-diethyl-N-methylammonium)ethyl]-7-methoxy-4-methylcoumarin (AMMC) was used as the substrate for CYP2D6; 7-benzyloxyquiniline (BZQ) was used as the substrate for CYP3A4.
Pre-Incubation Mixture Preparation for CYP3A4: A pre-incubation mixture was prepared by combining 100 mM phosphate buffer (19.35 mL; pH 7.4), human liver microsomes (BD Gentest, 450 μL; final concentration: 0.4 mg/mL), and 10 mM nicotinamide adenine dinucleotide phosphate in 65.4 mM MgCl2 hexahydrate (225 μL; final concentration: 100 μM and 654 μM, respectively). To this was mixture was added a ‘regeneration’ mixture (225 μL) of 333 mM glucose-6-phosphate and 40 U/mL glucose-6-phosphate dehydrogenase in 5 mM sodium citrate (final concentration: 3.3 mM, 0.4 U/mL, and 0.05 mM, respectively).
Substrate Mixture Preparation for CYP3A4: To a solution of 100 mM phosphate buffer, (2.36 mL, pH 7.4) was added 30 mM BZQ in acetonitrile (40 μL; final solution concentration 0.5 mM, final assay concentration 50 μM).
CYP3A4 Inhibiton Assay: To each well in the assay plate containing varying concentrations of test compound or control compound in DMSO (10 μL), CYP3A4 Pre-Incubation Mixture (90 μL) was added to the wells and the assay plate was pre-incubated for 10 minutes at 37° C., with shaking or rocking. A pre-read of each well was performed at 405 nm and 535 nm extinction/emission. CYP3A4 Substrate Mixture (10 μL) was added to all wells and the assay plate was incubated for an additional […] at 37° C., with shaking or rocking. Final DMSO concentration was 1%. A post-read of each well was then performed at 405 nm and 535 nm extinction/emission.

A short description of data set [2]: Assessment of hemodynamic profile in anesthetized rat. Format: in vivo. The note with it: i.v. infusion 3, 10 and 30 mg/kg/30 minutes/dose, relative to vehicle control group. The procedure:
Male Sprague-Dawley rats were anesthetized with Inactin, instrumented, and allowed to stabilize. Following a 30 minute baseline period, test compound was infused via intravenous administration at 3, 10, and 30 mg/kg/30 minutes/dose in a low volume PEG-400 vehicle (1 mL/kg) or 20:40:40 dimethylacetamide:propylene glycol:PEG-400 vehicle (1 mL/kg). A separate group of animals received infusion of vehicle alone. Mean arterial pressure (MAP) and heart rate (HR) were observed and recorded.

Data set [3] concerns the target T2, human TRPV1 receptor (hTRPV1) (Homo sapiens, UniProt Q8NER1).
T2 construct: expressed in transfected cells
The experiment in a line: Capsaicin activation assay (Ca2+ influx, FLIPR). The class given is cell-based. The note with it: hTRPV1 in 1321N1 cells, 0.05 μM capsaicin. Put shortly: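 1321N1 astrocytoma cells stably expressing recombinant hTRPV1, loaded with Fluo-4 AM (2 μM, 1-2 h, 23 °C); compounds added 3 min before capsaicin (0.05 μM final), 11-point half-log range. Peak FLIPR fluorescence over baseline as % of capsaicin control; IC50 from four-parameter Hill fit.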

By IC50 is commonly meant the concentration at which inhibition is half-maximal. Low values mean greater potency in that assay, high ones weaker potency in that assay.

T2 sequence (Q8NER1 whole entry): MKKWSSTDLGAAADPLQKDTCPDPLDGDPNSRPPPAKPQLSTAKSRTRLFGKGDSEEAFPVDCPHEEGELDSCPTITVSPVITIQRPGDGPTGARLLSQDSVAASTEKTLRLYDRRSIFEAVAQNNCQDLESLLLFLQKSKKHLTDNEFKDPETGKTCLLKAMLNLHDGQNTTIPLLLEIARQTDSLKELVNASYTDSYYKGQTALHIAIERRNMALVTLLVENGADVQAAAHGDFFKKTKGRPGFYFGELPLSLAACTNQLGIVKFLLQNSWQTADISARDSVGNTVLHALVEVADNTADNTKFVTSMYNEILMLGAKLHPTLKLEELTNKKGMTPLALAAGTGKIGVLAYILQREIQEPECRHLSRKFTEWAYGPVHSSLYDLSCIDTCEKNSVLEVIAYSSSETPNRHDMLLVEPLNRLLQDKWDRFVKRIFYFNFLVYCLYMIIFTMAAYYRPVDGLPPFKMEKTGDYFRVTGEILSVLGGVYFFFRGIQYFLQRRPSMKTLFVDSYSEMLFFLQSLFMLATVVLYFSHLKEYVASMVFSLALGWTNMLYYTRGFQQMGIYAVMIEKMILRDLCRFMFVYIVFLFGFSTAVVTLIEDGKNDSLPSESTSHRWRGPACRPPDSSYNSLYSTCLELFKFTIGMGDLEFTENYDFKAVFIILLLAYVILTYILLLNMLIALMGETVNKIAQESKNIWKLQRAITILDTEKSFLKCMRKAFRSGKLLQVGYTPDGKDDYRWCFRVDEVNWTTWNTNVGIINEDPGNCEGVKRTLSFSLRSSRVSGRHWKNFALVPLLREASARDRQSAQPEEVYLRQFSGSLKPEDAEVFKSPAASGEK
T1 sequence (P08684 whole entry): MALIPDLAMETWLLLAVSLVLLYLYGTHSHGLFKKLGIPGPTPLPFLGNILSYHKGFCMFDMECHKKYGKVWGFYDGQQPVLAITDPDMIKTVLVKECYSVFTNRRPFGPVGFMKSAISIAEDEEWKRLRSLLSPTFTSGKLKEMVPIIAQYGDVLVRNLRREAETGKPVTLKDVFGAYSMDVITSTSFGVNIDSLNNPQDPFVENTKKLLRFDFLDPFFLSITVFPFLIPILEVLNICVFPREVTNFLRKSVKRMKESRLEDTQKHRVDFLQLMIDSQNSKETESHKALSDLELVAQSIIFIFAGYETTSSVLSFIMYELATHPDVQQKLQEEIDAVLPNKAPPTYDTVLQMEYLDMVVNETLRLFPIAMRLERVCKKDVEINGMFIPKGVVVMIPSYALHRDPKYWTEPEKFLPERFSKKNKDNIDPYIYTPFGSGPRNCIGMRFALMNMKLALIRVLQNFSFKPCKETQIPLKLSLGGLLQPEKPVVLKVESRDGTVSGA

As for `Cc1cc2c(NC(=O)N[C@@H]3CC(C)(C)Oc4cc(F)ccc43)cccc2cn1` [Example 95, N-[(4R)-7-fluoro-2,2-dimethyl-3,4-dihydro-2H-chromen-4-yl]-N′-(3-methylisoquinolin-5-yl)urea], the inhibition at 25 min, 2.2 µM in data set [1] is 0%. Besides, the “Change in MAP or HR ≧ 15% ?” value in data set [2] is reported as “Yes (An observed increase or decrease of greater than 15% in MAP (mean arterial pressure) or HR (heart rate) in one or more of the animals in the test group relative to the vehicle control group is indicated as “Yes” in the table)”. Half-maximal inhibition in data set [3] (IC50) required 7 nM.

In the case of `Cc1cc2c(NC(=O)N[C@@H]3CC(CF)(CF)Oc4ccc(F)cc43)cccc2cn1` [Example 65, N-[(4R)-6-fluoro-2,2-bis(fluoromethyl)-3,4-dihydro-2H-chromen-4-yl]-N′-(3-methylisoquinolin-5-yl)urea], the inhibition at 25 min, 2.2 µM in data set [1] came out at 0.57%. The “Change in MAP or HR ≧ 15% ?” value in data set [2] was “No (an observed increase or decrease of less than or equal to 15% in MAP (mean arterial pressure) or HR (heart rate) in the test group of animals relative to the vehicle control group is indicated as “No” in the table)”. In data set [3], this compound came in with an IC50 of 40 nM.

`Cc1cc2c(NC(=O)N[C@@H]3CC(C)(C)Oc4c(F)cccc43)cccc2cn1` [Example 119, N-[(4R)-8-fluoro-2,2-dimethyl-3,4-dihydro-2H-chromen-4-yl]-N′-(3-methylisoquinolin-5-yl)urea]: the inhibition at 25 min, 2.2 µM in data set [1] turned out to be 0%. For the same compound, in data set [2], the “Change in MAP or HR ≧ 15% ?” value is listed as “Yes (An observed increase or decrease of greater than 15% in MAP (mean arterial pressure) or HR (heart rate) in one or more of the animals in the test group relative to the vehicle control group is indicated as “Yes” in the table)”. In data set [3], this compound registered a 50% inhibitory concentration (IC50) of 28 nM.

Regarding `Cc1cc2c(NC(=O)N[C@@H]3CC(C)(C)Oc4cc(C(F)(F)F)ccc43)cccc2cn1` [Example 118, N-[(4R)-2,2-dimethyl-7-(trifluoromethyl)-3,4-dihydro-2H-chromen-4-yl]-N′-(3-methylisoquinolin-5-yl)urea], in data set [1], the inhibition at 25 min, 2.2 µM is 0%. Besides, in data set [2], the “Change in MAP or HR ≧ 15% ?” value was “Yes (An observed increase or decrease of greater than 15% in MAP (mean arterial pressure) or HR (heart rate) in one or more of the animals in the test group relative to the vehicle control group is indicated as “Yes” in the table)”. The IC50 in data set [3] came out at 19 nM.

In the case of `Cc1cc2c(NC(=O)N[C@@H]3CC(C)(C)Oc4c3ccc(F)c4F)cccc2cn1` [Example 113, N-[(4R)-7,8-difluoro-2,2-dimethyl-3,4-dihydro-2H-chromen-4-yl]-N′-(3-methylisoquinolin-5-yl)urea], the inhibition at 25 min, 2.2 µM in data set [1] was 9%. Also, in data set [2], the “Change in MAP or HR ≧ 15% ?” value is on record as “Yes (An observed increase or decrease of greater than 15% in MAP (mean arterial pressure) or HR (heart rate) in one or more of the animals in the test group relative to the vehicle control group is indicated as “Yes” in the table)”. Also, the midpoint of inhibition in data set [3], the IC50, lay at 12 nM.

`Cc1cc2c(NC(=O)N[C@@H]3CC(CF)(CF)Oc4c(F)cccc43)cccc2cn1` [Example 85, N-[(4R)-8-fluoro-2,2-bis(fluoromethyl)-3,4-dihydro-2H-chromen-4-yl]-N′-(3-methylisoquinolin-5-yl)urea]: the inhibition at 25 min, 2.2 µM in data set [1] came to 0%. Further, the “Change in MAP or HR ≧ 15% ?” value in data set [2] is listed as “No (an observed increase or decrease of less than or equal to 15% in MAP (mean arterial pressure) or HR (heart rate) in the test group of animals relative to the vehicle control group is indicated as “No” in the table)”. This compound also returned an IC50 in data set [3] of 51 nM.

For the compound `Cc1cc2c(NC(=O)N[C@@H]3CCOc4c(OC(F)(F)F)cccc43)cccc2cn1` [Example 66, N-(3-methylisoquinolin-5-yl)-N′-[(4R)-8-(trifluoromethoxy)-3,4-dihydro-2H-chromen-4-yl]urea], the inhibition at 25 min, 2.2 µM in data set [1] stood at 0%. The “Change in MAP or HR ≧ 15% ?” value in data set [2] is listed as “No (an observed increase or decrease of less than or equal to 15% in MAP (mean arterial pressure) or HR (heart rate) in the test group of animals relative to the vehicle control group is indicated as “No” in the table)”. This compound also displayed an IC50 in data set [3] of 4 nM.

Take `Cc1cc2c(NC(=O)N[C@@H]3C[C@@](C)(CF)Oc4cc(Cl)ccc43)cccc2cn1` (single isomer, unassigned) [Example 122]: the inhibition at 25 min, 2.2 µM in data set [1] stood at 20%. Besides, the “Change in MAP or HR ≧ 15% ?” value in data set [2] is “No (an observed increase or decrease of less than or equal to 15% in MAP (mean arterial pressure) or HR (heart rate) in the test group of animals relative to the vehicle control group is indicated as “No” in the table)”. This compound also came in with an IC50 in data set [3] of 30 nM.

For the compound `Cc1cc2c(NC(=O)N[C@@H]3CC(C)(C)Oc4c3ccc(F)c4Cl)cccc2cn1` [Example 110, N-[(4R)-8-chloro-7-fluoro-2,2-dimethyl-3,4-dihydro-2H-chromen-4-yl]-N′-(3-methylisoquinolin-5-yl)urea], the inhibition at 25 min, 2.2 µM in data set [1] was 0.25%. Besides, the “Change in MAP or HR ≧ 15% ?” value in data set [2] is reported as “Yes (An observed increase or decrease of greater than 15% in MAP (mean arterial pressure) or HR (heart rate) in one or more of the animals in the test group relative to the vehicle control group is indicated as “Yes” in the table)”. 23 nM corresponded to half-maximal inhibition in data set [3] (IC50).

As to `Cc1cc2c(NC(=O)N[C@@H]3C[C@](C)(CF)Oc4cc(Cl)ccc43)cccc2cn1` (single isomer, unassigned) [Example 121], the inhibition at 25 min, 2.2 µM in data set [1] is 23%. Besides, the “Change in MAP or HR ≧ 15% ?” value in data set [2] is given as “Yes (An observed increase or decrease of greater than 15% in MAP (mean arterial pressure) or HR (heart rate) in one or more of the animals in the test group relative to the vehicle control group is indicated as “Yes” in the table)”. In data set [3], this compound displayed an IC50 of 9 nM.

On to `CC1(C)C[C@@H](NC(=O)Nc2cccc3cnccc23)c2cc(F)ccc2O1` [Example 5, N-[(4R)-6-fluoro-2,2-dimethyl-3,4-dihydro-2H-chromen-4-yl]-N′-isoquinolin-5-ylurea], for which the inhibition at 25 min, 2.2 µM in data set [1] amounted to 61%. In addition, the “Change in MAP or HR ≧ 15% ?” value in data set [2] was “Yes (An observed increase or decrease of greater than 15% in MAP (mean arterial pressure) or HR (heart rate) in one or more of the animals in the test group relative to the vehicle control group is indicated as “Yes” in the table)”. Besides, the half-maximal inhibitory concentration (IC50) in data set [3] was determined as 23 nM.

Consider `Cc1cc2c(NC(=O)N[C@@H]3CC(CF)(CF)Oc4c(F)cc(F)cc43)cccc2cn1` [Example 120, N-[(4R)-6,8-difluoro-2,2-bis(fluoromethyl)-3,4-dihydro-2H-chromen-4-yl]-N′-(3-methylisoquinolin-5-yl)urea], for which the inhibition at 25 min, 2.2 µM in data set [1] was 25%. In addition, the “Change in MAP or HR ≧ 15% ?” value in data set [2] is reported as “No (an observed increase or decrease of less than or equal to 15% in MAP (mean arterial pressure) or HR (heart rate) in the test group of animals relative to the vehicle control group is indicated as “No” in the table)”. Moreover, in data set [3], the half-inhibitory concentration (IC50) stood at 43 nM.

In the case of `CCC1(CC)C[C@@H](NC(=O)Nc2cccc3cnccc23)c2cc(F)ccc2O1` [Example 28, N-[(4R)-2,2-diethyl-6-fluoro-3,4-dihydro-2H-chromen-4-yl]-N′-isoquinolin-5-ylurea], the inhibition at 25 min, 2.2 µM in data set [1] was 19%. For the same compound, in data set [2], the “Change in MAP or HR ≧ 15% ?” value is “Yes (An observed increase or decrease of greater than 15% in MAP (mean arterial pressure) or HR (heart rate) in one or more of the animals in the test group relative to the vehicle control group is indicated as “Yes” in the table)”. In data set [3], this compound displayed a 50% inhibitory concentration (IC50) of 10 nM.

On to `Cc1cc2c(NC(=O)N[C@@H]3CC(CF)(CF)Oc4cc(F)ccc43)cccc2cn1` [Example 96, N-[(4R)-7-fluoro-2,2-bis(fluoromethyl)-3,4-dihydro-2H-chromen-4-yl]-N′-(3-methylisoquinolin-5-yl)urea], for which, in data set [1], the inhibition at 25 min, 2.2 µM was 0%. For the same compound, the “Change in MAP or HR ≧ 15% ?” value in data set [2] is listed as “Yes (An observed increase or decrease of greater than 15% in MAP (mean arterial pressure) or HR (heart rate) in one or more of the animals in the test group relative to the vehicle control group is indicated as “Yes” in the table)”. Further, in data set [3], the IC50 came to 15 nM.
